Test results as given in article PMC4900628, “Critical Evaluation of P2X7 Receptor Antagonists in Selected Seizure Models” (PLoS ONE, 2016).

Columns and labels:
[1] = Plasma and brain concentration in mice (co-administration with AEDs); type: in vivo; settings: PTZ-T
Method: Blood was collected intracardially by heart […] pipettes supplemented with heparin-Na (ratiopharm, Ulm, Germany; 10μl of 5.000 I.U./ml) and separated by centrifuging (1500xg for 10 min) at 6-8°C. The plasma was stored at -20°C in plastic tubes. After blood sample collection, rats were decapitated and brains were quickly dissected. After removing the adherent blood by tissue paper and cutting off the cerebellum, the samples were fresh frozen using liquid nitrogen. Brain tissue was stored at -80°C and delivered to the different laboratories on dry ice. For mice (groups with n = 6), a similar procedure was used for the preparation of plasma and brain samples. In experiments in which AFC was co-administered with carbamazepine or ethosuximide, drug concentrations in plasma and brain were estimated to detect potential pharmacokinetic interactions. Samples from experiments with AFC were analysed at the Lead Discovery Center (Dortmund, Germany). Briefly, AFC, carbamazepine and ethosuximide were extracted from plasma and homogenized brain by protein precipitation using acetonitrile. Resulting filtrates were analysed by liquid chromatography tandem-mass spectrometry (LC-MS/MS) using a Prominence UFLC system (Shimadzu, Duisburg, Germany) coupled to a QTrap 5500 instrument (ABSciex, Darmstadt, Germany). The compounds were separated on a Zorbax Eclipse Plus C18 column (Agilent Technologies, Santa Clara, CA, USA) with an acetonitrile/water gradient containing 0.1% formic acid as solvent. Chromatographic conditions and mass spectrometer parameters were optimized for each analyte. Plasma and brain concentrations of the compounds were calculated by means of a standard curve. Data were analysed using SigmaPlot (vers. 12.0, Systat Software, Erkrath, Germany) and SPSS (IBM SPSS Statistics 20, […], Germany), respectively. Results are expressed as mean ± SEM. […] In the MES-T, the current intensity inducing tonic hindlimb extensions in 50% of the mice (CC50 values with confidence limits for 95% probability) and the statistical significance was calculated using Probit analysis (SPSS). […] In the PTZ-T, the number of animals in the group with clonic seizures and the latency time were analysed using Fisher's exact probability test and the Mann-Whitney rank sum test, respectively. For multiple comparisons of the latency time a one-way ANOVA with the Holm-Sidak post hoc test was used. The influence of AFC on the plasma and brain concentrations of the antiepileptic drugs was statistical compared using the same procedure. In the PTZ-kindling model, the mean seizure stage within a group was calculated in relation to the number of PTZ-injections. Statistical comparison between vehicle- and compound-treated groups in this model was performed with two-way repeated measures ANOVA, followed by the Holm-Sidak post hoc test. The mean number of PTZ-injections needed to produce the first generalized seizure (≥ stage 3 convulsions) in the vehicle- versus compound-treated groups was statistically compared using a Mann-Whitney rank sum test. In fully kindled rats, the calculated mean seizure stage within a group after vehicle- and compound-treatment were compared using a paired t-test. P < 0.05 was the accepted minimum level of significance.

[2] = tested on: electroshock-induced tonic (hindlimb extension) seizures; assay: Maximal electroshock seizure threshold test (MES-T); type: in vivo; settings: mice
Method: The stimulus train was applied via ear-clip electrodes (sinusoidal pulses 4-14 mA, 50 Hz, 0.2 s duration) by means of a constant current stimulator (rodent-shocker type 221; Hugo Sachs Elektronik, March-Hugstetten, Germany). […] Groups of 20 mice were used. Control groups, which received the corresponding vehicle, were tested together with the compound-treated groups on the same experimental day. Current intensity-effect curves were obtained on the basis of the number of animals responding with the endpoint at the corresponding current value. The results are calculated as convulsive current fifty (CC50) values (current intensity in mA, necessary to produce tonic hindlimb extension in 50% of the mice tested) including the confidence limits for 95% probability. […] Chemicals, Toronto, Canada) was slowly added. The pH was adjusted with 1N NaOH (similar amount of NaOH as HCl), all with continuous stirring. […] The drug solutions or suspensions were prepared immediately before use; all doses refer to the salts. Animals in the control group received equivalent volumes of the vehicle (in mice always 10 ml/kg, in rats 1 ml/kg [JNJ], 3 ml/kg [AFC] or 4 ml/kg [BBG, TIIAS], depending on the solubility of the different compounds). Doses and peak time effects were selected on the basis of effective doses from corresponding in vivo studies in the literature: BBG (e.g.), tanshinone IIA (e.g.) and from manufacturer's experimental data: AFC, JNJ (see, [80]). Data were analysed using SigmaPlot (vers. 12.0, Systat Software, Erkrath, Germany) and SPSS (IBM SPSS Statistics 20, […], Germany), respectively. Results are expressed as mean ± SEM. […] In the PTZ-T, the number of animals in the group with clonic seizures and the latency time were analysed using Fisher's exact probability test and the Mann-Whitney rank sum test, respectively. […] In the PTZ-kindling model, the mean seizure stage within a group was calculated in relation to the number of PTZ-injections. […] In fully kindled rats, the calculated mean seizure stage within a group after vehicle- and compound-treatment were compared using a paired t-test. […]

Row | Compound | blood concentrations of ethosuximide on co-application of AFC [1] | brain concentration of ethosuximide alone ([1]; ethosuximide 100 mg/kg i.p., n = 6) [µM] | brain concentration of ethosuximide with AFC 50 mg/kg i.p. ([1]; ethosuximide 100 mg/kg i.p., n = 6, significantly increased) [µM] | seizure threshold in MES-T at the higher doses ([2]; AFC 50 mg/kg, JNJ 30 mg/kg, alone) | anticonvulsant effectiveness of co-administration with carbamazepine compared to carbamazepine alone (MES-T) ([2]; AFC 25 and 50 mg/kg s.c. or JNJ 15 and 30 mg/kg s.c. 30 min before, with carbamazepine 7 mg/kg i.p., P < 0.01)
1 | CCC1(C)CC(=O)NC1=O (centres unmarked) [Ethosuximide, ethosuximide] | did not significantly modulate | 377.3 ± 14.3 | 453.9 ± 18.7 | – | –
2 | O=C(NCC1(N2CCN(c3ccccc3)CC2)CCOCC1)c1cccnc1Sc1ccccc1 [JNJ-47965567, N-[[4-(4-phenyl-piperazin-1-yl)tetrahydro-2H-pyran-4-yl]-methyl]-2-(phenyl-thio) nicotinamide] | – | – | – | small, but non-significant increase in seizure threshold | significantly increased the anticonvulsant effectiveness
